Measured values: ChEMBL document CHEMBL2034935, “Discovery of a Novel Series of CRTH2 (DP2) Receptor Antagonists Devoid of Carboxylic Acids” (ACS Med Chem Lett, 2011)

Assays:
[1] = target: T1, Prostaglandin D2 receptor 2 (Homo sapiens, UniProt Q9Y5Y4); assay: Displacement of [3HPGD2 from human CRTH2 receptor expressed in CHO cell membrane after 90 mins by scintillation proximity assay; format: cell membranes
T1 sequence (Q9Y5Y4 whole entry): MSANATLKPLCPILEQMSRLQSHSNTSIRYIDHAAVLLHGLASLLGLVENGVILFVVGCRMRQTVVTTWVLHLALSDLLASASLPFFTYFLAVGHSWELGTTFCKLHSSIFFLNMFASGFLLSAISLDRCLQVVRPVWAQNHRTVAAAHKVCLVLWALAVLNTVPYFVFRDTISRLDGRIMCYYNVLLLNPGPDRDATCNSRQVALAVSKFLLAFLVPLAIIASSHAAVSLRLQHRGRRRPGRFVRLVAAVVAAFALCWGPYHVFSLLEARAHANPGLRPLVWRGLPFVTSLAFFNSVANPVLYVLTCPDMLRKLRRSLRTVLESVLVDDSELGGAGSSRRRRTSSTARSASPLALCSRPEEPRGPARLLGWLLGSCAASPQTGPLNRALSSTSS

[2] = target: T2, Prostaglandin D2 receptor 2 (Homo sapiens) (UniProt Q9Y5Y4); assay: Agonist activity at human CRTH2 receptor expressed in CHO cell membrane assessed as induction of [35S]GTPgammaS binding at 20 uM after 30 mins by microbeta scintillation counting relative to PGD2; format: functional, cell membranes
T2 sequence (whole entry): T1 sequence (Q9Y5Y4 whole entry)

[3] = target: T1, Prostaglandin D2 receptor 2; assay: Antagonist activity at human CRTH2 receptor expressed in CHO cell membrane assessed as inhibition of PGD2-induced [35S]GTPgammaS binding after 30 mins by microbeta scintillation counting; format: functional, cell membranes
[4] = target: T2, Prostaglandin D2 receptor 2 (Homo sapiens); assay: Antagonist activity at human CRTH2 receptor expressed in CHO cell membrane assessed as inhibition of PGD2-induced [35S]GTPgammaS binding at 2 uM after 30 mins by microbeta scintillation counting relative to control; format: functional, cell membranes
[5] = Intrinsic clearance in human liver microsomes assessed per mg protein at 1 uM up to 45 mins by LC/MS analysis; format: ADME, Microsome; details: read-out: CLH
[6] = Intrinsic clearance in rat liver microsomes assessed per mg protein at 1 uM up to 45 mins by LC/MS analysis; format: ADME, Microsome; details: read-out: CLH
Cytochrome P450 1A2 = target: T3, Cytochrome P450 1A2 (Homo sapiens, UniProt P05177); assay: Inhibition of human recombinant CYP1A2 incubated for 15 mins prior to substrate addition measured after 30 mins by spectrophotometry; format: ADME
T3 sequence (P05177 whole entry): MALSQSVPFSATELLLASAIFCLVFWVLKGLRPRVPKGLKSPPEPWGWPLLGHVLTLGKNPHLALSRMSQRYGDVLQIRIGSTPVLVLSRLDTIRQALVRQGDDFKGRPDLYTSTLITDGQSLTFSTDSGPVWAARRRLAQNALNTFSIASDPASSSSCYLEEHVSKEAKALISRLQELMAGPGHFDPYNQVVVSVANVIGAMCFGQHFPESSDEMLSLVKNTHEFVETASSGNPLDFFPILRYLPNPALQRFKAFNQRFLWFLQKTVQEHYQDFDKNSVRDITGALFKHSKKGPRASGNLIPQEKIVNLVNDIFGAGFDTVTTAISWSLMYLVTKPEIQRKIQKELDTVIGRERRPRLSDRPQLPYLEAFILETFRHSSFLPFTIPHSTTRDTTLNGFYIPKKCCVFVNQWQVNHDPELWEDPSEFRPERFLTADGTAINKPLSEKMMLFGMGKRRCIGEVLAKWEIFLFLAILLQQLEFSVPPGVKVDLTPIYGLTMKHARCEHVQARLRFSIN

Cytochrome P450 2B6 = target: T4, Cytochrome P450 2B6 (Homo sapiens, UniProt P20813); assay: Inhibition of human recombinant CYP2B6 incubated for 15 mins prior to substrate addition measured after 30 mins by spectrophotometry; format: ADME
T4 sequence (P20813 whole entry): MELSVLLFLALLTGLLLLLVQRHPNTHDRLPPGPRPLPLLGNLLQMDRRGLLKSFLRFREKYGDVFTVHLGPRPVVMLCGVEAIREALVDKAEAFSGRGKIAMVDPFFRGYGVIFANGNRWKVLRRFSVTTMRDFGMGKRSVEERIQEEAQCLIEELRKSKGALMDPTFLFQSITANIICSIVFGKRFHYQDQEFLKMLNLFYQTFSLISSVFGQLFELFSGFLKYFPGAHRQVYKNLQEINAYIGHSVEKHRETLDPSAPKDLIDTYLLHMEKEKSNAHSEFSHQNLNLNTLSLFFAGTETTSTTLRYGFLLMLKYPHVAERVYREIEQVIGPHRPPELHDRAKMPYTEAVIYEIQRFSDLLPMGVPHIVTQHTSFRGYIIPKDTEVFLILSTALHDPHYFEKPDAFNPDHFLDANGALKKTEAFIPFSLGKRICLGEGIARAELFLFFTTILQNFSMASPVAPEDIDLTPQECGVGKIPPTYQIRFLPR

Cytochrome P450 3A4 = Cytochrome P450 3A4 (Homo sapiens, UniProt P08684); assay: Inhibition of human recombinant CYP3A4 incubated for 15 mins prior to substrate addition measured after 30 mins by spectrophotometry; format: ADME
Cytochrome P450 2D6 = Cytochrome P450 2D6 (Homo sapiens, UniProt P10635); assay: Inhibition of human recombinant CYP2D6 incubated for 15 mins prior to substrate addition measured after 30 mins by spectrophotometry; format: ADME
Cytochrome P450 2C8 = target: T5, Cytochrome P450 2C8 (Homo sapiens, UniProt P10632); assay: Inhibition of human recombinant CYP2C8 incubated for 15 mins prior to substrate addition measured after 30 mins by spectrophotometry; format: ADME
T5 sequence (P10632 whole entry): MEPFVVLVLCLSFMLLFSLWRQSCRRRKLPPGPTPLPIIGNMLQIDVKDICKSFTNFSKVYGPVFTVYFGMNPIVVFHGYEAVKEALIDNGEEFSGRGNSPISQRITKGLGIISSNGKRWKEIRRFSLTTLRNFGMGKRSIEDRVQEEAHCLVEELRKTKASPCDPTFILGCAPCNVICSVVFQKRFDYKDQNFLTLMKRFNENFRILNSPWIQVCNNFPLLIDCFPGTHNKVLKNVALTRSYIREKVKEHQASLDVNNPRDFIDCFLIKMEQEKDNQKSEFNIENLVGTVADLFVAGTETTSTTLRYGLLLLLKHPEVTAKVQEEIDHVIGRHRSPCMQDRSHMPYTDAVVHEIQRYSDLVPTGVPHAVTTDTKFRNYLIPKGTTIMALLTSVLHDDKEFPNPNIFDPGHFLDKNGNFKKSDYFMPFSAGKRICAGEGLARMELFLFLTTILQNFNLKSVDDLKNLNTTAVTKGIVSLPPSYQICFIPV

Cytochrome P450 2C9 = Cytochrome P450 2C9 (Homo sapiens, UniProt P11712); assay: Inhibition of human recombinant CYP2C9 incubated for 15 mins prior to substrate addition measured after 30 mins by spectrophotometry; format: ADME
Cytochrome P450 2C19 = Cytochrome P450 2C19 (Homo sapiens, UniProt P33261); assay: Inhibition of human recombinant CYP2C19 incubated for 15 mins prior to substrate addition measured after 30 mins by spectrophotometry; format: ADME
[7] = Apparent permeability across human Caco2 cells at 1 uM after 2 hrs by LC/MS analysis; format: ADME, cell-based; details: Caco-2
[8] = Half life in C57BL/6 mouse at 1 mg/kg, iv; format: ADME, organism-based; set-up: dose 1 mg/kg, route intravenous; details: in vivo
[9] = Volume of distribution at steady state in C57BL/6 mouse at 1 mg/kg, iv and 5 mg/kg, po; format: ADME, organism-based; details: in vivo, read-out: Vdss

Chain of Cytochrome P450 3A4 (P08684 whole entry): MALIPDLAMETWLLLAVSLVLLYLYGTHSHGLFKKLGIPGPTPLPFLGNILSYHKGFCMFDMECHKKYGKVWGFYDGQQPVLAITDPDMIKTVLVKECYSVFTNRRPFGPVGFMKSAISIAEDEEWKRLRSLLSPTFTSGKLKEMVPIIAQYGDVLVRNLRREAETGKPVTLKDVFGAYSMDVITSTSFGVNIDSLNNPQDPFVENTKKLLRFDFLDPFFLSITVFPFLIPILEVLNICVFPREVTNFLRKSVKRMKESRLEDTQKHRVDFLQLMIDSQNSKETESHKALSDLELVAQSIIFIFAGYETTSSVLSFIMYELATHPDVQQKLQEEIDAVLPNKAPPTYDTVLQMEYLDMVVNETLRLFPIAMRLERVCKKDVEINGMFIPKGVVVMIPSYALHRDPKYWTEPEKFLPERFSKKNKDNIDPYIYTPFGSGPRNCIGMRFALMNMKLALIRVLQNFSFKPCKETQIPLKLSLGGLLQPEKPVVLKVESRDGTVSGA
Chain of Cytochrome P450 2D6 (P10635 whole entry): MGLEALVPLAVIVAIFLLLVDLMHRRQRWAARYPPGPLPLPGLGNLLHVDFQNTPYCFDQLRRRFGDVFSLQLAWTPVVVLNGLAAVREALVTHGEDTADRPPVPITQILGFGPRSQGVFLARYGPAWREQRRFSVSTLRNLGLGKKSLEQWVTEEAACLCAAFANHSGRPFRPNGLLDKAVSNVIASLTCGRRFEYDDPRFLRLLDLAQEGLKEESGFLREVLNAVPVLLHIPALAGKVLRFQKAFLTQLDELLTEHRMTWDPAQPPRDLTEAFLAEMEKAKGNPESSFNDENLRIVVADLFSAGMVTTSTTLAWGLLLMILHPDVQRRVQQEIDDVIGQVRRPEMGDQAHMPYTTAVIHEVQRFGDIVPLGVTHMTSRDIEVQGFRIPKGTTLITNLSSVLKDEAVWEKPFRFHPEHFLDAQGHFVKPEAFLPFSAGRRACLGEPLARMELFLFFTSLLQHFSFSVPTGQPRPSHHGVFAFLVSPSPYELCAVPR
Chain of Cytochrome P450 2C9 (P11712 whole entry): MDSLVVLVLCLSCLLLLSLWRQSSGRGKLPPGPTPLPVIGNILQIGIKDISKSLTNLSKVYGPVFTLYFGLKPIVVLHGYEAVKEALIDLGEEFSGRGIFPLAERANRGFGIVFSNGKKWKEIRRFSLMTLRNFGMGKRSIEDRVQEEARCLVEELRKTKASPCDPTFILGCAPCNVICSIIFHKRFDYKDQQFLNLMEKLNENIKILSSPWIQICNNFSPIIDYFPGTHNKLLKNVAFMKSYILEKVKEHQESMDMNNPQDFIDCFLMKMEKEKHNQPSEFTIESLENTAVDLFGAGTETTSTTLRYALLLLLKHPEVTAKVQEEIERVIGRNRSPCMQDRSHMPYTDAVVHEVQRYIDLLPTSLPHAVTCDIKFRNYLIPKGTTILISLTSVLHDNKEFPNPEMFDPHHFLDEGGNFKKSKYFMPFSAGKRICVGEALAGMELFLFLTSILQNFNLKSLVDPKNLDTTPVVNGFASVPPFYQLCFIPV
Chain of Cytochrome P450 2C19 (P33261 whole entry): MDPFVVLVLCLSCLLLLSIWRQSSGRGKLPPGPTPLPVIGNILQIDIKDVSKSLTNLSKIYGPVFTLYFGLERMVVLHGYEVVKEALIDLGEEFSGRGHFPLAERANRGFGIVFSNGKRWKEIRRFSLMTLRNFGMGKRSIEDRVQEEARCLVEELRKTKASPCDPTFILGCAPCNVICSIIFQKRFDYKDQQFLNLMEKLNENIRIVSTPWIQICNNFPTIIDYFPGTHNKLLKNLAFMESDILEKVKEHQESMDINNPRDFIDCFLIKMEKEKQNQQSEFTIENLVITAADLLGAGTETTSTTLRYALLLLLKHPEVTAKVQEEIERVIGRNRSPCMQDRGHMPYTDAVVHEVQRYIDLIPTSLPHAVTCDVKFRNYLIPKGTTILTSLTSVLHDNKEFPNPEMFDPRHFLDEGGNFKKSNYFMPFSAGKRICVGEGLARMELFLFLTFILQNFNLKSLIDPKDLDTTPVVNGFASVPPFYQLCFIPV

SMILES	Ki [1]	Emax [2]	IC50 [3]	inhibition [4]	microsomal CLint at 1 µM [5]	microsomal CLint at 1 µM [6]	IC50 (Cytochrome P450 1A2)	IC50 (Cytochrome P450 2B6)	IC50 (Cytochrome P450 3A4)	IC50 (Cytochrome P450 2D6)	IC50 (Cytochrome P450 2C8)	IC50 (Cytochrome P450 2C9)	IC50 (Cytochrome P450 2C19)	Papp at 2 h, 1 µM [7]	half-life [8]	Vd [9]
CCC(=O)N(Cc1ccc(C(F)(F)F)cc1)c1cc(F)cc(-c2nnn[nH]2)c1	0.0057 µM	-8%	0.037 µM	105%	< 10 µL/min/mg	< 10 µL/min/mg	> 10 µM	> 10 µM	> 10 µM	> 10 µM	0.086 µM	0.28 µM	0.038 µM	3 ×10⁻⁶ cm/s	1.4 h	0.9 L/kg
CCC(=O)N(Cc1cccc(C(F)(F)F)c1)c1cccc(-c2nnn[nH]2)c1	0.22 µM						> 10 µM	> 10 µM	> 10 µM	> 10 µM						
CCCCC(=O)N(Cc1ccc(OC(F)(F)F)cc1)c1cc(Cl)cc(-c2nnn[nH]2)c1	0.019 µM	-10%	0.02 µM	112%			> 10 µM	> 10 µM	> 10 µM	> 10 µM						
CCC(=O)N(Cc1ccc(OC(F)(F)F)cc1)c1cc(F)cc(-c2nnn[nH]2)c1	0.0069 µM				< 10 µL/min/mg	12 µL/min/mg	> 10 µM	> 10 µM	> 10 µM	> 10 µM	0.043 µM	0.2 µM	0.051 µM			
CCCCC(=O)N(Cc1ccc(C(F)(F)F)cc1)c1cc(F)cc(-c2nnn[nH]2)c1	0.0024 µM						> 10 µM	> 10 µM	> 10 µM	> 10 µM						
CCCCC(=O)N(Cc1ccc(OC(F)(F)F)cc1)c1cc(F)cc(-c2nnn[nH]2)c1	0.0077 µM						> 10 µM	> 10 µM	> 10 µM	> 10 µM						
CCC(=O)N(Cc1ccc(C(F)(F)F)cc1)c1cccc(-c2nnn[nH]2)c1	0.11 µM						> 10 µM	> 10 µM	> 10 µM	> 10 µM						
CCCCC(=O)N(Cc1cccc(OC(F)(F)F)c1)c1cc(F)cc(-c2nnn[nH]2)c1	0.0045 µM						> 10 µM	> 10 µM	> 10 µM	> 10 µM						
